From patent publication US20210155644A1, “CYCLOPENTENYL PURINE DERIVATIVE OR SALT THEREOF” (Fujifilm Corporation, priority 2018, published 2021)
Read-outs that look alike come from different tables or passages of the source. Blank lines part the entries; values can stand above or below the compound they belong to.

Test system: adenovirus type 6 (ADV6)
Experiment: Evaluation of anti-adenovirus activity: CRL-11516 cells infected with ADV6, anti-hexon staining, count of stained cells
Format: cell-based
Method: A system in which CRL-11516 cells (available from ATCC) were infected with adenovirus type 6 (hereinafter, referred to as ADV6) was constructed, and a test for evaluating the anti-adenovirus activity of the compound according to the embodiment of the present invention and the compound of Comparative Example was carried out using the system. The test for evaluating the anti-adenovirus activity was carried out according to the method described below.
CRL-11516 cells were added to a 96-well plate at a cell density of 1×10^4 cells/well and cultured at 37° C. for 24 hours. After the culture was completed, the cell culture liquid was removed, and a serial dilution (100 μL) of the compound according to the embodiment of the present invention or the compound of Comparative Example was added. ADV6 (corresponding to 50TCID50) was added thereto, followed by culturing at 37° C. for 48 hours.
After the culture was completed, the infected cells were stained using Adeno-X Rapid Titer Kit (manufactured by Takara Bio Inc.). 100% methanol was added thereto and the cells were fixed at −20° C. for 10 minutes. The plate was washed three times with phosphate buffered saline (hereinafter, referred to as PBS) and then Mouse Anti-Hexon Antibody was added thereto, followed by incubation at 37° C. for 1 hour. After the incubation was completed, the plate was washed three times with PBS, and Rat Anti-Mouse Antibody was added thereto, followed by incubation at 37° C. for 1 hour. After the incubation was completed, a mixed staining solution of Stable Peroxidase Buffer:DAB Substrate=10:1 was added thereto, followed by incubation at room temperature for 10 minutes for staining of the cells.
The number of dark brown-stained cells was counted under a microscope, and the concentration of the test drug that reduces the dark brown-stained cells by 50% was defined as EC50. EC50 values were calculated for the triplicate test results, and a mean value and a standard deviation thereof were determined.

[1] = CRL-11516 cells infected with ADV6, 48 hours culture, concentration reducing dark brown-stained cells by 50%, read-out: Anti-AdV activity EC50
[2] = Human mastadenovirus C, 48 h, CRL-11516 cells infected with ADV6, 48 hours culture, concentration reducing dark brown-stained cells by 50%, read-out: Anti-AdV activity EC50

EC50 [1]: < 10 nM
Compound: COC(=O)[C@H](C)NP(=O)(OCCSC(=O)C(C)(C)C)OC[C@@H]1C=C[C@H](n2cnc3c(OC)nc(N)nc32)C1 (stereo partly drawn) [Example 4-6-2, ((((1S,4R)-4-(2-amino-6-methoxy-9H-purin-9-yl)cyclopent-2-en-1-yl)methoxy)(2-(pivaloylthio)ethoxy)phosphoryl)-L-alaninate]

Compound: COc1nc(N)nc2c1ncn2[C@H]1C=C[C@@H](COP(=O)(OCCSC(=O)C(C)(C)C)Oc2ccccc2)C1 (stereo partly drawn) [Example 4-7-1, S-(2-(((((1 S,4R)-4-(2-amino-6-methoxy-9H-purin-9-yl)cyclopent-2-en-1-yl)methoxy) (phenoxy)phosphoryl)oxy)ethyl) 2,2-dimethylpropanethioate]
EC50 (Human mastadenovirus C, 48 h, read-out: Anti-AdV activity EC50, CRL-11516 cells infected with ADV6, 48 hours culture, concentration reducing dark brown-stained cells by 50%): 10 to 100 nM

Compound: COc1nc(N)nc2c1ncn2[C@H]1C=C[C@@H](COP(=O)(OCCSC(=O)C(C)(C)C)Oc2ccccc2)C1 (stereo partly drawn) [Example 4-7-2, S-(2-(((((1 S,4R)-4-(2-amino-6-methoxy-9H-purin-9-yl)cyclopent-2-en-1-yl)methoxy) (phenoxy)phosphoryl)oxy)ethyl) 2,2-dimethylpropanethioate]
EC50 (read-out: Anti-AdV activity EC50, CRL-11516 cells infected with ADV6, 48 hours culture, concentration reducing dark brown-stained cells by 50%): 10 to 100 nM

EC50 (Human mastadenovirus C, CRL-11516 cells infected with ADV6, 48 hours culture, concentration reducing dark brown-stained cells by 50%, read-out: Anti-AdV activity EC50): 100 to 1000 nM
Compound: COC(=O)[C@H](C)NP(=O)(OCCSC(=O)C(C)(C)CO)OC[C@@H]1C=C[C@H](n2cnc3c(Cl)nc(N)nc32)C1 (stereo partly drawn) [Example 5-1, methyl ((((1 S,4R)-4-(2-amino-6-chloro-9H-purin-9-yl)cyclopent-2-en-1-yl)methoxy)(2-((3-hydroxy-2,2-dimethylpropanoyl)thio)ethoxy)phosphoryl)-L-alaninate]

Compound: COc1cccc(OP(=O)(N[C@@H](C)C(=O)OC(C)C)OC[C@@H]2C=C[C@H](n3cnc4c(OC)nc(N)nc43)C2)c1 (stereo partly drawn) [Example 6-2-7, isopropyl ((((1S,4R)-4-(2-amino-6-methoxy-9H-purin-9-yl)cyclopent-2-en-1-yl)methoxy)(3-methoxyphenoxy)phosphoryl)-L-alaninate]
EC50 [2]: 10 to 100 nM

Compound: COc1nc(N)nc2c1ncn2[C@H]1C=C[C@@H](COP(=O)(N[C@@H](C)C(=O)OC(C)C)Oc2ccc3c(c2)OCO3)C1 (stereo partly drawn) [Example 6-2-21, isopropyl ((((1S,4R)-4-(2-amino-6-methoxy-9H-purin-9-yl)cyclopent-2-en-1-yl)methoxy)(benzo[d][1,3]dioxolo-5-yloxy)phosphoryl)-L-alaninate]
EC50 [1]: 10 to 100 nM

Compound: COCCOc1cccc(OP(=O)(N[C@@H](C)C(=O)OC(C)C)OC[C@@H]2C=C[C@H](n3cnc4c(OC)nc(N)nc43)C2)c1 (stereo partly drawn) [Example 6-2-23, isopropyl ((((1S,4R)-4-(2-amino-6-methoxy-9H-purin-9-yl)cyclopent-2-en-1-yl)methoxy)(3-(2-methoxyethoxy)phenoxy)phosphoryl)-L-alaninate]
EC50 [2]: < 10 nM

Compound: COc1nc(N)nc2c1ncn2[C@H]1C=C[C@@H](COP(=O)(N[C@@H](C)C(=O)OC(C)C)Oc2cccc3ccccc23)C1 (stereo partly drawn) [Example 6-2-25]
EC50 [1]: < 10 nM

Compound: Isopropyl ((((1S,4R)-4-(2-amino-6-methoxy- 9H-purin-9-yl)cyclopent-2-en-1- yl)methoxy)(naphthalen-1-yloxy) phosphoryl)-L-alaninate [Example 6-2-26]
EC50 [1]: 10 to 100 nM
